From patent US12576099B2, “Ribose-modified cap analog and use thereof” (Beijing Youcare Kechuang Pharmaceutical Technology Co., Ltd., priority 2024, dated 2026)

What was measured:
BALB/C mice = assay: In vivo imaging of Fluc-mRNA LNP expression in mice
Description: The LNP preparation containing 5 μg of cap analog-transcribed Fluc-mRNA was intramuscularly injected into female BALB/C mice aged 4 to 6 weeks and weighing 17 to 19 g. At specific time points after administration (6 hours, 12 hours, 24 hours, 48 hours, 96 hours, and 168 hours), the mice were intraperitoneally injected with fluorescence imaging substrate. The mice were then allowed to move freely for 5 minutes, followed by detection of the total radiation intensity of the protein expressed by LNP-carrying mRNA in the mice using an IVIS Spectrum small-animal in vivo imaging system (corresponding to the amount of protein expression).
In the in vivo imaging experiments in mice, the multiple of the total radiation intensity for each group of mice relative to the m6A group is shown in Table 8 (where the total radiation intensity is represented as the given value×10^8 p/s).

T7 RNA polymerase = T7 RNA polymerase (Escherichia phage T7, UniProt P00573); assay: Capping rate of mRNA transcription initiated by cap analogs (LC-MS); type: biochemical; settings: for Capping rate: LC-MS of mRNA 5′ fragment
Description: During the experiment, the volume of materials required for the system was first calculated, and then sample addition was conducted. The system was first added with sterile enzyme-free water, followed by the sequential addition of 10× buffer, NTPs, and cap analogs, mixed well, and gently centrifuged. Nuclease inhibitors, inorganic pyrophosphatase, T7RNA polymerase, and linearized DNA templates were then added thereto. The system was mixed well, gently centrifuged, and incubated at 37° C. After 2 hours of incubation, the system was added with 1 U of DNase I and incubated at 37° C. for another 30 minutes. The mRNA precipitate was then washed with 75% ethanol, and after the ethanol was briefly evaporated to dryness, the mRNA was redissolved in sterile enzyme-free water. • (3) The transcription product was purified, and the in vitro transcription yield of mRNA was recorded. • (4) The obtained mRNA was subjected to an annealing reaction with a probe.
The annealing reaction was performed in a PCR instrument: 95° C. for 5 minutes; 65° C. for 2 minutes; 55° C. for 2 minutes; 40° C. for 2 minutes; 22° C. for 2 minutes. • (5) Magnetic bead pretreatment and probe binding: 100 μL of magnetic beads was placed on a magnetic frame for pretreatment. The magnetic bead solution was added with 120 μL of sample and incubated at room temperature for 30 minutes with slow mixing. • (6) mRNA splicing and obtaining the mRNA 5′ single-strand sequence bound to the probe
The mixture was added with 20 μL of RNase H (5 U/μL) and incubated at 37° C. for 3 hours with mixing every half hour. After incubation, the magnetic beads were washed and then added with 100 μL of 75% methanol heated to 80° C. The mixture was heated to 80° C. on a heating plate, held for 3 minutes, then placed on a magnetic frame to aspirate the supernatant, and dried at room temperature for 45 minutes to a volume of 10 μL using a centrifugal evaporator. The sample was then resuspended in 50 μL of 100 μM EDTA/1% MeOH and ready for LC-MS analysis to determine the capping of RNA in the transcription reaction. Since there is a significant difference in molecular weight between capped and uncapped bases, the capping rate of mRNA transcription initiated by different cap analogs can be determined based on the difference in molecular mass.

[1] = 6 h, 5 μg Fluc-mRNA LNP intramuscular, mice
[2] = 12 h, 5 μg Fluc-mRNA LNP intramuscular, mice
[3] = 24 h, 5 μg Fluc-mRNA LNP intramuscular, mice
[4] = 48 h, 5 μg Fluc-mRNA LNP intramuscular, mice
[5] = 96 h, 5 μg Fluc-mRNA LNP intramuscular, mice
[6] = 168 h, 5 μg Fluc-mRNA LNP intramuscular, mice

Chain of T7 RNA polymerase (P00573 whole entry, the tested form may be a part): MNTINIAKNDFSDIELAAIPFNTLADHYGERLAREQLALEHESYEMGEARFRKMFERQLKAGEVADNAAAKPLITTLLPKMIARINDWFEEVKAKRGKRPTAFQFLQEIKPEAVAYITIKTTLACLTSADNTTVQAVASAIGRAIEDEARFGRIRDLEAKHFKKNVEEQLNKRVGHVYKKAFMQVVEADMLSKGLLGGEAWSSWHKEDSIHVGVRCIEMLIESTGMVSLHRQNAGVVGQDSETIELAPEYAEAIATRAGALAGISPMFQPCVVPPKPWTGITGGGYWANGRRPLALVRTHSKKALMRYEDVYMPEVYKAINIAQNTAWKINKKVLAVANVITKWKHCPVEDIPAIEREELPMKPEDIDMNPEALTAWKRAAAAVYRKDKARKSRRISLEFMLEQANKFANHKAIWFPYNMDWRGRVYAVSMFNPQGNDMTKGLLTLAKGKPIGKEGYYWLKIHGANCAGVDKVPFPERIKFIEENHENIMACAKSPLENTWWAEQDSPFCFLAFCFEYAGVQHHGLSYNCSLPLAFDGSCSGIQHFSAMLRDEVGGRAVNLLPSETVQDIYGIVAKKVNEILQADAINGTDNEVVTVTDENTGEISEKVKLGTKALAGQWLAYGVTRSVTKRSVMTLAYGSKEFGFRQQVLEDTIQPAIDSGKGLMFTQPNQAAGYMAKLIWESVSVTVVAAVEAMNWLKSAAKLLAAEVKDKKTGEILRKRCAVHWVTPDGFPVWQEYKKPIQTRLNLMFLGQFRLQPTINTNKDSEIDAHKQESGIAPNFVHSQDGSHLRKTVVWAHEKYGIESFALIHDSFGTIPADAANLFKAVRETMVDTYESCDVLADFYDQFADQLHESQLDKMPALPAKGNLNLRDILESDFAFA

SMILES | Multiple of total radiation intensity relative to m6A (BALB/C mice; 6 h) | Total radiation intensity (BALB/C mice; [1]) | Multiple of total radiation intensity relative to m6A (BALB/C mice; 12 h) | Total radiation intensity (BALB/C mice; [2]) | Multiple of total radiation intensity relative to m6A (BALB/C mice; 24 h) | Total radiation intensity (BALB/C mice; [3]) | Multiple of total radiation intensity relative to m6A (BALB/C mice; 48 h) | Total radiation intensity (BALB/C mice; [4]) | Multiple of total radiation intensity relative to m6A (BALB/C mice; 96 h) | Total radiation intensity (BALB/C mice; [5]) | Total radiation intensity (BALB/C mice; [6]) | Total radiation intensity (BALB/C mice; at 12 hours) | Total radiation intensity (BALB/C mice; at 48 hours) | Capping rate (T7 RNA polymerase) [%] | Increase relative to 5227 (capping rate) (T7 RNA polymerase) [%]
CO[C@@H]1[C@H](OP(=O)(O)OC[C@H]2O[C@@H](n3cnc4c(=O)[nH]c(N)nc43)[C@H](O)[C@@H]2O)[C@@H](COP(=O)(O)OP(=O)(O)OP(=O)(O)OC[C@H]2OC([n+]3cn(C)c4c(=O)[nH]c(N)nc43)[C@H](O)[C@@H](O)[C@@H]2O)O[C@H]1n1cnc2c(N)ncnc21 (some centres unmarked) [YK-CAP-101] | 0.8 | 1.81 ×108 p/s | 0.5 | 0.96 ×108 p/s | 0.5 | 0.36 ×108 p/s | 0.4 | 0.19 ×108 p/s | 1.5 | 0.04 ×108 p/s | 0.02 ×108 p/s | 0.96 ×10^8 p/s | 0.19 ×10^8 p/s | 42.8 | −40.5
CO[C@@H]1[C@H](OP(=O)(O)OC[C@H]2O[C@@H](n3cnc4c(=O)[nH]c(N)nc43)[C@H](O)[C@@H]2O)[C@@H](COP(=O)(O)OP(=O)(O)OP(=O)(O)OC[C@H]2O[C@@H]([n+]3cn(C)c4c(=O)[nH]c(N)nc43)[C@H](O)[C@]2(C)NC(C)=O)O[C@H]1n1cnc2c(N)ncnc21 [YK-CAP-106] | 2.5 | 5.88 ×108 p/s | 3.2 | 6.85 ×108 p/s | 2.7 | 1.76 ×108 p/s | 1.0 | 0.53 ×108 p/s | 2.6 | 0.11 ×108 p/s | 0.03 ×108 p/s | – | – | 95.3 | 32.5
COC(C)[C@H]1[C@@H](O)[C@H]([n+]2cn(C)c3c(=O)[nH]c(N)nc32)O[C@@H]1COP(=O)(O)OP(=O)(O)OP(=O)(O)OC[C@H]1O[C@@H](n2cnc3c(N)ncnc32)[C@H](OC)[C@@H]1OP(=O)(O)OC[C@H]1O[C@@H](n2cnc3c(=O)[nH]c(N)nc32)[C@H](O)[C@@H]1O (some centres unmarked) [YK-CAP-107] | 3.4 | 8.09 ×108 p/s | 3.2 | 6.87 ×108 p/s | 2.9 | 1.92 ×108 p/s | 1.2 | 0.60 ×108 p/s | 2.5 | 0.11 ×108 p/s | 0.03 ×108 p/s | – | – | 97.3 | 35.3
